Measured values: patent US11618746B2, “Inhibitors of APOL1 and methods of using same” (Vertex Pharmaceuticals Incorporated, priority 2018, dated 2023)

Each molecule was assayed against T1, APOL1 G1 Protein (Homo sapiens, UniProt O14791, I384M/S342G) (assay: Trypanosoma brucei brucei lysis assay using APOL1 recombinant protein (AlamarBlue viability readout)). Conditions: Trypanosoma brucei brucei (Lister 427 VSG 221 bloodstream form) lysis by 0.05 μg/mL recombinant APOL1 G1, 16 hrs.
T1 sequence (O14791 28-398 S342G/I384M): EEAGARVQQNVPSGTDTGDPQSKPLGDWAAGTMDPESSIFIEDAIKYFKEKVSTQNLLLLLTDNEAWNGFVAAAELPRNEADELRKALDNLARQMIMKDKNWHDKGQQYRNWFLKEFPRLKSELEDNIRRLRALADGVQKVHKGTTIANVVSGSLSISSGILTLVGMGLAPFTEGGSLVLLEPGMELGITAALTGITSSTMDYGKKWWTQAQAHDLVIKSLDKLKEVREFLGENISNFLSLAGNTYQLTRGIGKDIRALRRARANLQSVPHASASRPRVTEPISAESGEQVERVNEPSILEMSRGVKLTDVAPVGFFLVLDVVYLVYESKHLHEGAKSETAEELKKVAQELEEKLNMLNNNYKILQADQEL
Format: cell-based
Text: Trypanosoma brucei brucei is a blood stream parasite to which human, gorillas and baboon are immune due to the presence of the APOL1 protein in their HDL particles. The protein is uptaken by the parasite via the TbHpHb receptor located in its flagellar pocket and is bonded by the Hpr protein contained in the HDL particles which triggers the receptor endocytosis by the parasite.
Following endocytosis, the formed vesicle containing the HDL particle matures from early to late endosome, and subsequently to lysosome. The concomitant pH change in the lumen of the vesicle triggers the insertion of the APOL1 protein into the membrane of the late endosome/lysosome and hereby triggers lysosomal membrane premeabilisation and as a further downstream event, trypanosome lysis. Trypanosoma brucei brucei is sensitive to lysis by all three APOL1 variants (G0, G1, and G2).
The Trypanosoma brucei brucei lysis assay is a lysis assay of the parasite using recombinant APOL1 protein variant followed by a fluorescent detection method of viability by the addition of AlamarBlue reagent to the assay well, a general metabolic redox indicator (AlamarBlue assay).
Briefly, the AlamarBlue active compound, the resazurin, a blue, water soluble, non-toxic and cell permeable molecule, which can be followed by absorbance, is reduced by various metabolic pathways into resorufin, a red compound which can be followed by either absorbance or fluorescence. The assay allows the calculation of the percent viability (percent of living Trypanosomes remaining in each well) at the end of a lysis relative to the untreated condition by interpolation of fluorescent values (FLU) on a standard curve with a known amount of seeded trypanosome/well.
Trypanosoma brucei brucei (ATCC, Cat. No. PRA-382) • Lister 427 VSG 221 bloodstream form.
Thaw/Expansion Media (ATCC Medium 2834 Modified HMI-9 Medium)
Equipment • E1-Clip Tip pipette 12 channel adjustable 2-125 μL, Cat. No. 4672070BT • ThermoFisher MultiDrop 384, Cat. No. 5840300 • Multidrop • Agilent Bravo, Cat. No. G5409A • Bravo • SpectraMax M5
Trypanosoma brucei brucei Culture
Step 2, Day 4 • Centrifuge at 800×g for 5 minutes at room temperature. • Resuspend in 1 mL media. • Make a 1:25 fold dilution (10 μL/240 μL media). • Count on a hemocytometer (after adding parasites). • Let sit for 1-2 minutes for the parasites to settle. • Count should be approximately 100 viable motile parasites/16 grid or approximately 25×10^6 parasites/flask. • Passage the parasites by adding 1×10^6 parasites/T75 flask in 20 mL media. • Passage the parasites by adding 2.33×10^6 parasites/T175 flask in 46.6 mL media. • For every T75 flask should make enough for approximately 1.5×384 well assay plates. • For every T175 flask should make enough for approximately 3.8×384 well assay plates.
Step 3. Day 6 • Centrifuge at 800×g for 5 minutes. • Resuspend in 3 mL assay media (No phenol red, no FBS) per 75 starting flask. • Resuspend in 7 mL assay media (No phenol red, no FBS) per 175 flask • Make a 1:25 fold dilution. • Count by hemocytometer. • Every T75 flask set up should have approximately 75×10^6 parasites/flask (verify doubling time=8.7 hrs 1 hr). • Every T175 flask set up should have approximately 175×10^6 parasites/flask (verify doubling time=8.7 hrs±1 hr). • Require 46×10^6 parasites per 384 well plate (at 120,000 parasites per well).
Step 2, Day 2 • Centrifuge at 800×g for 5 minutes at room temperature. • Resuspend in 1 mL media. • Make a 1:25 fold dilution (10 L/240 μL media). • Let sit for 1-2 minutes for the parasites to settle. • Count should be approximately 100 viable motile parasites/16 grid or approximately 8×10^6 parasites per flask. • Passage the parasites by adding 1.25×10^6 parasites per T75 flask in 20 mL media. • For every T75 flask set up should have approximately 1.5×384 well assay plates. • For every T175 flask setup should have approximately 3.8×384 well assay plates. […]
`O=C(CCc1c(-c2ccc(F)cc2)[nH]c2ccc(F)cc12)N[C@H]1CCNC1=O` [Compound 47] was tested, and the IC50 was less than 0.25 µM. With `O=C(CCc1c(-c2ccc(F)cc2)[nH]c2c(Cl)cc(F)cc12)N[C@@H]1C(=O)NC[C@H]1O` [Compound 36] the IC50 was less than 0.25 µM. `Cc1ccc(-c2[nH]c3ccccc3c2CCC(=O)N[C@@H]2C(=O)NC[C@H]2O)cc1` [Compound 124] gave an IC50 of less than 0.25 µM. Work on `O=C(CCc1c(-c2ccccc2)[nH]c2c(F)c(F)ccc12)N[C@@H]1C(=O)NC[C@H]1O` [Compound 59] yielded an IC50 of less than 0.25 µM. `O=C(CCc1c(-c2ccc(F)cc2)[nH]c2c(F)cc(Cl)cc12)N[C@@H]1C(=O)NC[C@H]1O` [Compound 30] was tested, and the IC50 was less than 0.25 µM. Molecule `O=C(CCc1c(-c2ccccc2)[nH]c2ccc(F)cc12)N[C@H]1CCNC1=O` [Compound 52] has an IC50 of less than 0.25 µM. Work on `O=C(CCc1c(-c2ccc(F)cc2)[nH]c2c(OC(F)F)cc(F)cc12)N[C@@H]1C(=O)NC[C@H]1O` [Compound 107] yielded an IC50 of 0.25 to 1 µM. `O=C(CCc1c(-c2ccccc2)[nH]c2c(F)cc(F)cc12)N[C@@H]1C(=O)NC[C@H]1O` [Compound 26] gave an IC50 of less than 0.25 µM. For `O=C(CCc1c(-c2ccc(F)cc2)[nH]c2c(Cl)cccc12)N[C@@H]1C(=O)NC[C@H]1O` [Compound 73], the IC50 was less than 0.25 µM. Molecule `N#Cc1cc(F)c2[nH]c(-c3ccc(F)cc3)c(CCC(=O)N[C@H]3CCNC3=O)c2c1` [Compound 28] has an IC50 greater than 1 µM. Work on `O=C(CCc1c(-c2ccc(F)cc2)[nH]c2c(F)cccc12)N[C@@H]1C(=O)NC[C@H]1O` [Compound 76] yielded an IC50 of less than 0.25 µM. For `O=C(CCc1c(-c2ccc(F)cc2)[nH]c2c(Cl)cccc12)N[C@H]1CCNC1=O` [Compound 72], the IC50 was less than 0.25 µM. With `Cc1cc(-c2[nH]c3ccccc3c2CCC(=O)N[C@@H]2C(=O)NC[C@H]2O)ccc1F` [Compound 125] the IC50 was less than 0.25 µM. `O=C(CCc1c(-c2ccccc2)[nH]c2ccc(F)cc12)N[C@@H]1C(=O)NC[C@H]1O` [Compound 51] gave an IC50 of less than 0.25 µM. `Cc1c(F)c(F)cc2c(CCC(=O)N[C@@H]3C(=O)NC[C@H]3O)c(-c3ccc(F)cc3)[nH]c12` [Compound 98, 3-[5,6-difluoro-2-(4-fluorophenyl)-7-methyl-1H-indol-3-yl]-N-[(3S,4R)-4-hydroxy-2-oxo-pyrrolidin-3-yl]propanamide] showed an IC50 of less than 0.25 µM. For `O=C(CCc1c(-c2ccc(F)c(F)c2)[nH]c2c(F)cc(F)cc12)N[C@@H]1C(=O)NC[C@H]1O` [Compound 105], the IC50 was less than 0.25 µM. In the case of `O=C(CCc1c(-c2ccc(F)cc2)[nH]c2c(F)cccc12)N[C@H]1CCNC1=O` [Compound 75], the IC50 is reported as less than 0.25 µM. In the case of `O=C(CCc1c(-c2ccc(C(F)F)cc2)[nH]c2ccccc12)N[C@@H]1C(=O)NC[C@H]1O` [Compound 131, 3-[2-[4-(difluoromethyl)phenyl]-1H-indol-3-yl]-N-[(3S,4R)-4-hydroxy-2-oxo-pyrrolidin-3-yl]propanamide], the IC50 is reported as less than 0.25 µM. `O=C(CCc1c(-c2ccccc2)[nH]c2c(C(F)(F)F)cccc12)N[C@@H]1C(=O)NC[C@H]1O` [Compound 112, N-[(3S,4R)-4-hydroxy-2-oxo-pyrrolidin-3-yl]-3-[2-phenyl-7-(trifluoromethyl)-1H-indol-3-yl]propanamide] was tested, and the IC50 was greater than 1 µM. In the case of `O=C(CCc1c(-c2ccc(OC(F)F)cc2)[nH]c2c(F)cc(F)cc12)N[C@@H]1C(=O)NC[C@H]1O` [Compound 102], the IC50 is reported as less than 0.25 µM. In the case of `O=C(CCc1c(-c2ccc(F)c(F)c2)[nH]c2ccccc12)N[C@@H]1C(=O)NC[C@H]1O` [Compound 129, 3-[2-(3,4-difluorophenyl)-1H-indol-3-yl]-N-[(3S,4R)-4-hydroxy-2-oxo-pyrrolidin-3-yl]propanamide], the IC50 is reported as less than 0.25 µM. `O=C(CCc1c(-c2cccc(F)c2)[nH]c2c(F)cc(F)cc12)N[C@@H]1C(=O)NC[C@H]1O` [Compound 103] gave an IC50 of less than 0.25 µM. `CN(C(=O)CCc1c(-c2ccc(F)cc2)[nH]c2ccc(F)cc12)C1CCNC1=O` (stereo not shown) [Compound 50] was tested, and the IC50 was 0.25 to 1 µM. For `O=C(CCc1c(-c2ccc(Cl)cc2)[nH]c2ccccc12)N[C@@H]1C(=O)NC[C@H]1O` [Compound 128, 3-[2-(4-chlorophenyl)-1H-indol-3-yl]-N-[(3S,4R)-4-hydroxy-2-oxo-pyrrolidin-3-yl]propanamide], the IC50 was less than 0.25 µM. `O=C(CCc1c(-c2ccc(C(F)(F)F)cc2)[nH]c2ccccc12)N[C@@H]1C(=O)NC[C@H]1O` [Compound 123] showed an IC50 of less than 0.25 µM. `O=C(CCc1c(-c2ccc(OC(F)F)cc2)[nH]c2c(F)cc(F)cc12)N[C@H]1CCNC1=O` [Compound 21] gave an IC50 of less than 0.25 µM. `Cc1c(F)c(F)cc2c(CCC(=O)N[C@@H]3C(=O)NC[C@H]3O)c(-c3ccccc3)[nH]c12` [Compound 99, 3-(5,6-difluoro-7-methyl-2-phenyl-1H-indol-3-yl)-N-[(3S,4R)-4-hydroxy-2-oxo-pyrrolidin-3-yl]propanamide] was tested, and the IC50 was less than 0.25 µM. With `O=C(CCc1c(-c2ccc(F)cc2)[nH]c2ccc(F)cc12)N[C@@H]1CCNC1=O` [Compound 49] the IC50 was 0.25 to 1 µM. With `O=C1NC[C@@H](O)[C@@H]1NC(=O)C(F)(F)Cc1c(-c2ccc(F)cc2)[nH]c2c(F)cc(F)cc12` [Compound 95, 3-[5,7-difluoro-2-(4-fluorophenyl)-1H-indol-3-yl]-2,2-difluoro-N-[(3S,4R)-4-hydroxy-2-oxo-pyrrolidin-3-yl]propanamide] the IC50 was less than 0.25 µM. With `O=C(CCc1c(-c2ccccc2)[nH]c2cc(F)ccc12)N[C@@H]1C(=O)NC[C@H]1O` [Compound 109, 3-(6-fluoro-2-phenyl-1H-indol-3-yl)-N-[(3S,4R)-4-hydroxy-2-oxo-pyrrolidin-3-yl]propanamide] the IC50 was less than 0.25 µM. In the case of `O=C(CCc1c(-c2ccc(F)cc2)[nH]c2c(F)cc(C(F)(F)F)cc12)N[C@@H]1C(=O)NC[C@H]1O` [Compound 101, 3-[7-fluoro-2-(4-fluorophenyl)-5-(trifluoromethyl)-1H-indol-3-yl]-N-[(3S,4R)-4-hydroxy-2-oxo-pyrrolidin-3-yl]propanamide], the IC50 is reported as less than 0.25 µM. With `O=C(CCc1c(-c2ccccc2)[nH]c2c(F)cccc12)N[C@@H]1C(=O)NC[C@H]1O` [Compound 61] the IC50 was less than 0.25 µM. `COc1cc(F)cc2c(CCC(=O)N[C@@H]3C(=O)NC[C@H]3O)c(-c3ccc(F)cc3)[nH]c12` [Compound 40] showed an IC50 of less than 0.25 µM. In the case of `O=C(CCc1c(-c2ccc(OC(F)(F)F)cc2)[nH]c2ccccc12)N[C@@H]1C(=O)NC[C@H]1O` [Compound 118], the IC50 is reported as less than 0.25 µM. `O=C(CCc1c(-c2ccc(F)cc2)[nH]c2ccc(C(F)(F)F)cc12)N[C@@H]1C(=O)NC[C@H]1O` [Compound 108, 3-[2-(4-fluorophenyl)-5-(trifluoromethyl)-1H-indol-3-yl]-N-[(3S,4R)-4-hydroxy-2-oxo-pyrrolidin-3-yl]propanamide] gave an IC50 of less than 0.25 µM. `O=C(CCc1c(-c2ccc(F)cc2)[nH]c2ccc(F)cc12)NC1CCNC1=O` (stereo not shown) [Compound 48] gave an IC50 of less than 0.25 µM. `Cc1ccc2[nH]c(-c3ccc(Br)cc3)c(CCC(=O)N[C@H]3CCNC3=O)c2c1` [Compound 43, 3-[2-(4-bromophenyl)-5-methyl-1H-indol-3-yl]-N-[(3S)-2-oxopyrrolidin-3-yl]propanamide] was tested, and the IC50 was less than 0.25 µM.
